{"source": "patent US12201640B2", "about": "“19-nor C3,3-disubstituted C21-n-pyrazolyl steroids and methods of use thereof” (Sage Therapeutics, Inc., priority 2013, dated 2025)", "key": {"[1]": {"biological_target": "T1, GABAA receptor α1β2γ2 (Homo sapiens, UniProt P14867+P47870)", "T1 construct": "expressed in transfected cells", "T1 sequence (P14867 28-456)": "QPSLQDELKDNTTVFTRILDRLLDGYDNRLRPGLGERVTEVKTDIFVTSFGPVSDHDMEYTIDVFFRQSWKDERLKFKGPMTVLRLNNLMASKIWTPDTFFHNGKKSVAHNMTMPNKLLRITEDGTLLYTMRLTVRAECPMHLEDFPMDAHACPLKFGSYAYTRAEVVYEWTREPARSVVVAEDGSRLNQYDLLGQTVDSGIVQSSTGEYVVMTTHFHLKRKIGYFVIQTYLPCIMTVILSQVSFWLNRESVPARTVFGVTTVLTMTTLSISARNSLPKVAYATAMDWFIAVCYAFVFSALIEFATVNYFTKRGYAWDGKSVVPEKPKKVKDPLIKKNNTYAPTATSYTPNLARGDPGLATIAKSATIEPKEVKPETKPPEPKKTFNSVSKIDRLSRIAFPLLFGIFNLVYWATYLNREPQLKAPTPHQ", "T1 sequence (P47870 25-512 limits assumed)": "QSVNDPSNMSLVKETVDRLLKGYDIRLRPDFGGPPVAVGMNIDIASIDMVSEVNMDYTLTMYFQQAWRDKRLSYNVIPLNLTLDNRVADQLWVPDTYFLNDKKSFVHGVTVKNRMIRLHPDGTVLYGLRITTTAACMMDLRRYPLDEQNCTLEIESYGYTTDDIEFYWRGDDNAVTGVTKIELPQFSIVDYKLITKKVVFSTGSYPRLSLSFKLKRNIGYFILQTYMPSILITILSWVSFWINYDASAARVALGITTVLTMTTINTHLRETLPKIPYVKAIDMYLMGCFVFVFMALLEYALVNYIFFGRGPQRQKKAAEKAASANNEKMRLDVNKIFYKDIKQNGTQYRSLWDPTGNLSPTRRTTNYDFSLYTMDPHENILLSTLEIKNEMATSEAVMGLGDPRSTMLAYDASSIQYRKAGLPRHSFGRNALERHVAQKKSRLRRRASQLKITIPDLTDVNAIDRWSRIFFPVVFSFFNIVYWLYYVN", "T1 sequence (P18507 40-475 partner)": "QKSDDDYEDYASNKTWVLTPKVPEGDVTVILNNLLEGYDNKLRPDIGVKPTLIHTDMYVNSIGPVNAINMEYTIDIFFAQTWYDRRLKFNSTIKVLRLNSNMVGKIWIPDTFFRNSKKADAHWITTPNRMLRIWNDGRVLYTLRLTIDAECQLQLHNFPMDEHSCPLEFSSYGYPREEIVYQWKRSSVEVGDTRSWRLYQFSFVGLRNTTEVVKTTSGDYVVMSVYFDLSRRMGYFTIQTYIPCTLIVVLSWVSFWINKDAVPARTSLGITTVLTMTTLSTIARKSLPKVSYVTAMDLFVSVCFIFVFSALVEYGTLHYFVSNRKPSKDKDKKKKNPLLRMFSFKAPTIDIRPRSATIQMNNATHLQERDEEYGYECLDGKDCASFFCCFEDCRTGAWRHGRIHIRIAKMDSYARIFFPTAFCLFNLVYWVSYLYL", "assay": "Patch clamp electrophysiology, Qpatch in Ltk cells", "format": "cell-based", "conditions": "10 μM test article, GABA EC20 2 μM, read-out: GABA (α1β2γ2) Qpatch in Ltk, % efficacy at 10 μM", "experimental": "(§1) Patch Clamp Electrophysiology of Recombinant α1β2γ2 and α4β3δ GABAA Receptors\n(§2) Cellular electrophysiology is used to measure the pharmacological properties of our GABAA receptor modulators in heterologous cell systems. Each compound is tested for its ability to affect GABA mediated currents at a submaximal agonist dose (GABA EC20=2 μM). LTK cells are stably transfected with the α1β2γ2 subunits of the GABA receptor and CHO cells are transiently transfected with the α4β3δ subunits via the Lipofecatamine method. Cells were passaged at a confluence of about 50-80% and then seeded onto 35 mm sterile culture dishes containing 2 ml culture complete medium without antibiotics or antimycotics. Confluent clusters of cells are electrically coupled (Pritchett et al., Science, 1988, 242, 1306-1308.). Because responses in distant cells are not adequately voltage clamped and because of uncertainties about the extent of coupling (Verdoorn et al., Neuron 1990, 4, 919-928.), cells were cultivated at a density that enables the recording of single cells (without visible connections to other cells).\n(§3) Whole cell currents were measured with HEKA EPC-10 amplifiers using PatchMaster software or by using the high throughput QPatch platform (Sophion). Bath solution for all experiments contained (in mM): NaCl 137 mM, KCl 4 mM, CaCl2 1.8 mM, MgCl2 1 mM, HEPES 10 mM, D-Glucose 10 mM, pH (NaOH) 7.4. In some cases 0.005% cremophor was also added. Intracellular (pipette) solution contained: KCl 130 mM, MgCl2 1 mM, Mg-ATP 5 mM, HEPES 10 mM, EGTA 5 mM, pH 7.2. During experiments, cells and solutions were maintained at room temperature (19° C.-30° C.). For manual patch clamp recordings, cell culture dishes were placed on the dish holder of the microscope and continuously perfused (1 ml/min) with bath solution. After formation of a Gigaohm seal between the patch electrodes and the cell (pipette resistance range: 2.5 MΩ-6.0 MΩ; seal resistance range: >1 GΩ) the cell membrane across the pipette tip was ruptured to assure electrical access to the cell interior (whole-cell patch-configuration). For experiments using the QPatch system, cells were transferred as suspension to the QPatch system in the bath solution and automated whole cell recordings were performed.\n(§4) Cells were voltage clamped at a holding potential of −80 mV. For the analysis of test articles, GABA receptors were stimulated by 2 μM GABA after sequential pre-incubation of increasing concentrations of the test article. Pre-incubation duration was 30 s and the duration of the GABA stimulus was 2 s. Test articles were dissolved in DMSO to form stock solutions (10 mM). Test articles were diluted to 0.01, 0.1, 1, and 10 μM in bath solution. All concentrations of test articles were tested on each cell. The relative percentage potentiation was defined as the peak amplitude in response to GABA EC20 in the presence of the test article divided by the peak amplitude in response to GABA EC20 alone, multiplied by 100."}, "[2]": {"biological_target": "T2, GABAA receptor α4β3δ (Homo sapiens, UniProt P28472+P48169)", "T2 construct": "expressed in transfected cells; host or cells: CHO cells (transient, lipofection)", "T2 sequence (P48169 36-554)": "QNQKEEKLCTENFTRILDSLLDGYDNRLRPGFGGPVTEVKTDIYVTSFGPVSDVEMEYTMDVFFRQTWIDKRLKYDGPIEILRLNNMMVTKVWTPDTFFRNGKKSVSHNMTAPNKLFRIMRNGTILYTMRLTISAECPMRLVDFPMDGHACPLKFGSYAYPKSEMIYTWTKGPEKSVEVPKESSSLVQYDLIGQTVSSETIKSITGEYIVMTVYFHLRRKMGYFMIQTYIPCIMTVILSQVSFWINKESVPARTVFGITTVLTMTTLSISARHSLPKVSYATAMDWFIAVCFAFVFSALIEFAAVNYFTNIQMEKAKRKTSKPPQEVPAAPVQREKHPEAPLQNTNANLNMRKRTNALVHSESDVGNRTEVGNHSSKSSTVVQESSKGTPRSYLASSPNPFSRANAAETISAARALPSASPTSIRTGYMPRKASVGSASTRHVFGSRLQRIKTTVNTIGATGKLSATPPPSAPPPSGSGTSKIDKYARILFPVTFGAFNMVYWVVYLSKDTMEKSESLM", "T2 sequence (P28472 26-473)": "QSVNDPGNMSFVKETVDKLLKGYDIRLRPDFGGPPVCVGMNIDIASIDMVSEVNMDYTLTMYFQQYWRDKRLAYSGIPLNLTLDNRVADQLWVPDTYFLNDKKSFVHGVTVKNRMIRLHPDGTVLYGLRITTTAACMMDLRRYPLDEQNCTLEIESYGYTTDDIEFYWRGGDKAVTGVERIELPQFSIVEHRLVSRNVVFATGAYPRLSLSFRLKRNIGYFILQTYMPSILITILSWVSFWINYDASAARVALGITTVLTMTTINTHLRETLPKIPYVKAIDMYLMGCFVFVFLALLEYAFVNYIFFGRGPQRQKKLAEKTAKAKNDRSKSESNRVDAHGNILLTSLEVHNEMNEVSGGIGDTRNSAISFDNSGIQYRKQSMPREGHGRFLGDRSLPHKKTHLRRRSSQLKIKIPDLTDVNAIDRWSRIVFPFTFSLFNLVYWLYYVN", "T2 sequence (O14764 25-452 partner)": "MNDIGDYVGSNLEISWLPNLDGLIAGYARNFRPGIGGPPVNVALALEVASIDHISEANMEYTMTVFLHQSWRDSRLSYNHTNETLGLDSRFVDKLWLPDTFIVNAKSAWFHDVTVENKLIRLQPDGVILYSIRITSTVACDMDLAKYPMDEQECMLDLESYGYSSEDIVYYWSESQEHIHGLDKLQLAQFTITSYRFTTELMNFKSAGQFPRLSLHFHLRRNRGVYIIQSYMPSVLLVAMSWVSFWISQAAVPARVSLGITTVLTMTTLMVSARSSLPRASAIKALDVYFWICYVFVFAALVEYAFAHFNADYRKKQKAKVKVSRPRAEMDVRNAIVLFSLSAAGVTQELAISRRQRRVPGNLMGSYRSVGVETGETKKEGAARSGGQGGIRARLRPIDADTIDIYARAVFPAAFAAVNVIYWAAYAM", "assay": "Patch clamp electrophysiology, manual patch in CHO cells", "format": "cell-based", "conditions": "10 μM test article, GABA EC20 2 μM, read-out: GABA (α4β3δ) Manual patch in CHO, % efficacy at 10 μM", "experimental": "as §1, §2, §3, §4"}, "[3]": {"tested_on": "PTZ-treated mice", "assay": "Acute PTZ (pentylenetetrazol-induced seizure) assay in mice", "format": "in vivo, mouse", "conditions": "PO, latency to tonic seizures", "experimental": "The anticonvulsant effect of test compounds were assessed in the pentylenetetazol-induced seizure assay in mice similar to methods described in Giardina & Gasior (2009) Curr Protoc Pharmacol., Chapter 5. Male CD-1 mice were housed in groups of five under controlled conditions (temperature of 22±2° C. and 12:12 light-dark cycle, lights on at 8:00 am) and water and food were available ad libitum. The mice were housed for 1 week prior to behavioral testing, at which time they weighed 25-35 g. Pentylenetetrazol (PTZ, Sigma) was dissolved in sterile 0.9% saline at a concentration of 12 mg/mL concentration for subcutaneous administration. Test compounds were formulated and administered via oral gavage or intraperitoneal injection at a predetermined time-point (typically 30 or 60 minutes) prior to PTZ injection. All solutions were made fresh and were given in a volume of 10 ml/kg body weight.\nMice were acclimated to the test room for at least 30 min before compound administration. Mice were randomized into at least four test groups (vehicle and at least three doses of the test compound) with 10 mice per group. […] Following the drug pretreatment time the mice were injected s.c. with PTZ (120 mg/kg). Immediately following the PTZ injection, mice were individually placed into observation chambers (25×15×15 cm) and a three-channel timer was started. Each mouse was continuously observed for 30 min and the following behaviors were recorded by observers blinded to the treatments: 1) latency to clonic convulsions that persist for 3 sec and followed by an absence of righting reflex 2) latency to tonic convulsions, characterized by the rigid extension of all four limbs that exceeded a 90 degree angle with the body 3) latency to death 4) number of clonic and tonic convulsions. Data are presented as mean±S.E.M and one-way analysis of variance with Dunnett's or Bonferroni's post-hoc test was used to detect significant differences in latency and number between the vehicle and dose group. p values<0.05 were regarded as statistically significant."}, "[4]": {"tested_on": "male Sprague Dawley rats", "assay": "Loss of righting reflex in rats", "format": "in vivo", "conditions": "Rat IV, 5 mpk", "experimental": "Loss of Righting Reflex in Rats\nThe plasma pharmacokinetics and a qualitative assessment of sedation were obtained in male\nSprague Dawley rats according to the following procedure. Rats were dosed by intravenous bolus dose (60 seconds) via the foot dorsal vein at doses ranging from 5 to 15 mg/kg in an appropriate vehicle. In order to assess sedation, rats were gently restrained by hand to a lateral position for dose administration. […] If the animal was unable to return to an upright position, the time was recorded as the onset of loss of righting reflex (LRR). […] Sluggish or incomplete righting twice consecutively within a 30 second interval qualifies as a loss of righting reflex. After onset of LRR, animals were assessed every 5 minutes in the same manner. Recovery of righting reflex is defined as the ability of a rat to right itself completely within 20 seconds of being placed in dorsal recumbency. The duration of LRR is defined as the time interval between LRR and the return of righting reflex."}}}
{"smiles": "C[C@@]1(O)CC[C@H]2[C@H](CC[C@@H]3[C@@H]2CC[C@]2(C)[C@@H](C(=O)Cn4cc(S(C)(=O)=O)cn4)CC[C@@H]32)C1", "note": "[SA-17]", "values": [{"measurement": "Emax at 10 µM", "setting": "[1]", "result": "100 to 500", "unit": "%"}, {"measurement": "Emax at 10 µM", "setting": "[2]", "result": "100 to 500", "unit": "%"}, {"measurement": "Anticonvulsive Effect Dose (minimal effective anticonvulsant dose)", "setting": "[3]", "result": "A (PO) (<3 mpk)"}]}
{"smiles": "C[C@@]1(O)CC[C@H]2[C@H](CC[C@@H]3[C@@H]2CC[C@]2(C)[C@@H](C(=O)Cn4ccc(C#N)n4)CC[C@@H]32)C1", "note": "[SA-22]", "values": [{"measurement": "Duration of Rat LRR", "setting": "[4]", "result": "B (15-60 min)"}, {"measurement": "Emax at 10 µM", "setting": "[1]", "result": "> 500", "unit": "%"}, {"measurement": "Emax at 10 µM", "setting": "[2]", "result": "100 to 500", "unit": "%"}, {"measurement": "Anticonvulsive Effect Dose (minimal effective anticonvulsant dose)", "setting": "[3]", "result": "A (PO) (<3 mpk)"}]}
